Measurements from ChEMBL document CHEMBL1671825, “Synthesis and in Vitro and in Vivo Evaluation of Phosphoinositide-3-kinase Inhibitors” (ACS Med Chem Lett, 2011).

How the values were obtained:
Type in all cases: ADME, organism-based
[1] = Half life in rat at 5 mg/kg, iv; design: dose 5 mg/kg, route intravenous; conditions: in vivo
[2] = Clearance in rat at 5 mg/kg, iv and 20 mg/kg, po; conditions: in vivo
[3] = AUC in rat at 20 mg/kg, po; design: dose 20 mg/kg, route oral; conditions: plasma
[4] = Volume of distribution at steady state in rat at 5 mg/kg, iv and 20 mg/kg, po; conditions: in vivo, read-out: Vdss
[5] = Oral bioavailability in rat at 20 mg/kg; conditions: in vivo
[6] = Half life in mouse at 10 mg/kg, po; design: dose 10 mg/kg, route oral; conditions: in vivo
[7] = Oral bioavailability in mouse at 10 mg/kg; conditions: in vivo
[8] = Clearance in mouse at 5 mg/kg, iv and 10 mg/kg, po; conditions: in vivo
[9] = Volume of distribution at steady state in mouse at 5 mg/kg, iv and 10 mg/kg, po; conditions: in vivo, read-out: Vdss
[10] = AUC in mouse at 10 mg/kg, po; design: dose 10 mg/kg, route oral; conditions: plasma

Structure (SMILES) | half-life [1] | clearance [2] | AUC [3] | Vd [4] | bioavailability [5] | half-life [6] | bioavailability [7] | clearance [8] | Vd [9] | AUC [10]
Oc1cccc(-c2cc(Nc3cnc4ccccc4c3)nc(N3CCOCC3)n2)c1 | 30 min | 179 mL/min/kg | 0.03 µM·h | 6.9 L/kg | 1% |  |  |  |  | 
c1cncc(-c2cc(Nc3cnc4ccccc4c3)nc(N3CCOCC3)n2)c1 | 55 min | 26 mL/min/kg | 16 µM·h | 2.4 L/kg | 46% |  |  |  |  | 
Nc1ccc(-c2cc(Nc3cnc4ccccc4c3)nc(N3CCOCC3)n2)cn1 | 103 min | 5 mL/min/kg | 93 µM·h | 0.8 L/kg | 56% |  |  |  |  | 
Nc1ncc(-c2cc(Nc3cnc4ccccc4c3)nc(N3CCOCC3)n2)cn1 | 43 min | 37 mL/min/kg | 6 µM·h | 1.9 L/kg | 23% |  |  |  |  | 
COc1ccc(Nc2cc(-c3cnc(N)nc3)nc(N3CCOCC3)n2)cn1 |  |  |  |  |  | 282 min | 87% | 99 mL/min/kg | 1.1 L/kg | 2 µM·h
